The assay concerns cultured rat pituitary cells. Briefly: secretion of ACTH and β-endorphin by cultured rat pituitary cells in vitro. In kind it is cell-based. The following applies: read-out: concentration at which half-maximal responses are observed (stimulation of secretion of ACTH and β-endorphin). As for the experimental part: The synthetic peptides from Example I and synthetic oCRF are examined for their effects on the secretion of ACTH and β-endorphin in vitro and also in vivo. The potency of synthetic oCRF to stimulate the secretion of ACTH and β-endorphin by cultured rat pituitary cells is measured using the procedure as generally set forth in Endocrinology, 91, 562 (1972). Half-maximal responses are observed at concentrations of the two peptides which are less than the synthetic oCRF concentration of about 250 picomolar which is needed to achieve such a response. In vivo testing using the general procedure set forth in C.

For “oCRF: ovine corticotropin releasing factor, 41-residue peptide, formula disclosed in U.S. Pat. No. 4,415,558”, the EC50 is roughly 0.25 nM.
